# According to patent US20210255193A1, “LYSINE REACTIVE PROBES AND USES THEREOF” (The Scripps Research Institute, priority 2017, published 2021):
# Assays:
# Test in all cases: competitive isoTOP-ABPP
# Assay type in all cases: binding
# [1] = target: T1, SLC25A5 ADP/ATP translocase 2 (Homo sapiens, UniProt P05141); details: for isoTOP-ABPP ratio (R) at liganded lysine P05141_K23 / isoTOP-ABPP reactivity ratio at lysine P05141_K23: 50 uM, in vitro; for isoTOP-ABPP ratio (R) at liganded lysine P05141_K23: sol, 231; for isoTOP-ABPP ratio, lysine P05141_K23: 50 uM_231_sol_in vitro; for isoTOP-ABPP reactivity ratio at lysine P05141_K23: 231 sol
# T1 construct: isoTOP-ABPP experiments performed in cell lysates (in vitro); endogenous in cells; host or cells: MDA-MB-231 soluble lysate
# T1 sequence (P05141 1-298): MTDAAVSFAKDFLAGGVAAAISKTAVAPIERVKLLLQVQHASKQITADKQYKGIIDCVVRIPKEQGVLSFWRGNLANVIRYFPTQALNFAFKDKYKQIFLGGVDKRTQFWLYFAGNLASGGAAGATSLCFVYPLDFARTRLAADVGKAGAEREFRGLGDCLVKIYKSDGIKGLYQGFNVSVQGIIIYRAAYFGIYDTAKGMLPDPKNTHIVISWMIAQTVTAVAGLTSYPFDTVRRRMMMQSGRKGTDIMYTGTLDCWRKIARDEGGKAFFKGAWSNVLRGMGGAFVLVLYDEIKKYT
# How it was run: (§1)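 Lysine engagement is reported as R, the MS1 peak-area ratio of heavy-tagged DMSO to light-tagged compound samples. Final fragment concentrations were 50 μM for activated esters and 100 μM for guanidinylating agents; STP-alkyne probe 0.1 mM, 1 h.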
# [2] = target: T2, ETFA Electron transfer flavoprotein subunit alpha, mitochondrial (Homo sapiens, UniProt P13804); details: for isoTOP-ABPP ratio (R) at liganded lysine P13804_K139 / R value (DMSO/fragment) for probe 1 labeling / isoTOP-ABPP reactivity ratio at lysine P13804_K139: 50 uM, in vitro; for isoTOP-ABPP ratio (R) at liganded lysine P13804_K139: sol, 231; for R value (DMSO/fragment) for probe 1 labeling: P13804_K139; for R value (DMSO/fragment) for probe 1 labeling / isoTOP-ABPP reactivity ratio at lysine P13804_K139: 231 sol; for isoTOP-ABPP ratio, lysine P13804_K139: 50 uM_231_sol_in vitro
# T2 construct: isoTOP-ABPP experiments performed in cell lysates (in vitro); endogenous in cells; host or cells: soluble proteome of human cancer cell lines (MDA-MB-231; Ramos and Jurkat also prepared)
# T2 sequence (P13804 20-333): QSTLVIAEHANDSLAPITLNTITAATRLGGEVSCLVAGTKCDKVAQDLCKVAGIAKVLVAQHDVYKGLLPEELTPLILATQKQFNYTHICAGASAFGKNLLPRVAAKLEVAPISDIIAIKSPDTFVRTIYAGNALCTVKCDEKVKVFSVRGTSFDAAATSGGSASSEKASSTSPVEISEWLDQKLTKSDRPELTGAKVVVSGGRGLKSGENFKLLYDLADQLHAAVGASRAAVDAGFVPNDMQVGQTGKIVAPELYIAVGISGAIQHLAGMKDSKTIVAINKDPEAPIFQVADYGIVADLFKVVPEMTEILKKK
# T2 sequence (P38117 2-255 partner limits assumed): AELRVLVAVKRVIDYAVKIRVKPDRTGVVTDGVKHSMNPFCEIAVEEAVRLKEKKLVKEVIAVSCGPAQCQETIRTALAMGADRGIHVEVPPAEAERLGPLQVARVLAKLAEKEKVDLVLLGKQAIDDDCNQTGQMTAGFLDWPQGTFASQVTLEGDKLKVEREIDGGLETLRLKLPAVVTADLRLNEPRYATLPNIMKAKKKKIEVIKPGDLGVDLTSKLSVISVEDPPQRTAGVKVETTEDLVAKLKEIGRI
# How it was run: as §1
# [3] = target: T3, DNMT1 DNA (cytosine-5)-methyltransferase 1 (Homo sapiens, UniProt P26358); details: for R value (DMSO/fragment) for probe 1 labeling: P26358_K45; for R value (DMSO/fragment) for probe 1 labeling / isoTOP-ABPP ratio (R) at liganded lysine P26358_K45 / isoTOP-ABPP reactivity ratio at lysine P26358_K45: 50 uM, in vitro; for R value (DMSO/fragment) for probe 1 labeling / isoTOP-ABPP reactivity ratio at lysine P26358_K45: 231 sol; for isoTOP-ABPP ratio (R) at liganded lysine P26358_K45: sol, 231; for isoTOP-ABPP ratio, lysine P26358_K45: 50 uM_231_sol_in vitro
# T3 construct: isoTOP-ABPP experiments performed in cell lysates (in vitro); endogenous in cells; host or cells: soluble proteome of human cancer cell lines (MDA-MB-231; Ramos and Jurkat also prepared)
# How it was run: as §1
# T3 sequence (P26358 whole entry, the tested form may be a part): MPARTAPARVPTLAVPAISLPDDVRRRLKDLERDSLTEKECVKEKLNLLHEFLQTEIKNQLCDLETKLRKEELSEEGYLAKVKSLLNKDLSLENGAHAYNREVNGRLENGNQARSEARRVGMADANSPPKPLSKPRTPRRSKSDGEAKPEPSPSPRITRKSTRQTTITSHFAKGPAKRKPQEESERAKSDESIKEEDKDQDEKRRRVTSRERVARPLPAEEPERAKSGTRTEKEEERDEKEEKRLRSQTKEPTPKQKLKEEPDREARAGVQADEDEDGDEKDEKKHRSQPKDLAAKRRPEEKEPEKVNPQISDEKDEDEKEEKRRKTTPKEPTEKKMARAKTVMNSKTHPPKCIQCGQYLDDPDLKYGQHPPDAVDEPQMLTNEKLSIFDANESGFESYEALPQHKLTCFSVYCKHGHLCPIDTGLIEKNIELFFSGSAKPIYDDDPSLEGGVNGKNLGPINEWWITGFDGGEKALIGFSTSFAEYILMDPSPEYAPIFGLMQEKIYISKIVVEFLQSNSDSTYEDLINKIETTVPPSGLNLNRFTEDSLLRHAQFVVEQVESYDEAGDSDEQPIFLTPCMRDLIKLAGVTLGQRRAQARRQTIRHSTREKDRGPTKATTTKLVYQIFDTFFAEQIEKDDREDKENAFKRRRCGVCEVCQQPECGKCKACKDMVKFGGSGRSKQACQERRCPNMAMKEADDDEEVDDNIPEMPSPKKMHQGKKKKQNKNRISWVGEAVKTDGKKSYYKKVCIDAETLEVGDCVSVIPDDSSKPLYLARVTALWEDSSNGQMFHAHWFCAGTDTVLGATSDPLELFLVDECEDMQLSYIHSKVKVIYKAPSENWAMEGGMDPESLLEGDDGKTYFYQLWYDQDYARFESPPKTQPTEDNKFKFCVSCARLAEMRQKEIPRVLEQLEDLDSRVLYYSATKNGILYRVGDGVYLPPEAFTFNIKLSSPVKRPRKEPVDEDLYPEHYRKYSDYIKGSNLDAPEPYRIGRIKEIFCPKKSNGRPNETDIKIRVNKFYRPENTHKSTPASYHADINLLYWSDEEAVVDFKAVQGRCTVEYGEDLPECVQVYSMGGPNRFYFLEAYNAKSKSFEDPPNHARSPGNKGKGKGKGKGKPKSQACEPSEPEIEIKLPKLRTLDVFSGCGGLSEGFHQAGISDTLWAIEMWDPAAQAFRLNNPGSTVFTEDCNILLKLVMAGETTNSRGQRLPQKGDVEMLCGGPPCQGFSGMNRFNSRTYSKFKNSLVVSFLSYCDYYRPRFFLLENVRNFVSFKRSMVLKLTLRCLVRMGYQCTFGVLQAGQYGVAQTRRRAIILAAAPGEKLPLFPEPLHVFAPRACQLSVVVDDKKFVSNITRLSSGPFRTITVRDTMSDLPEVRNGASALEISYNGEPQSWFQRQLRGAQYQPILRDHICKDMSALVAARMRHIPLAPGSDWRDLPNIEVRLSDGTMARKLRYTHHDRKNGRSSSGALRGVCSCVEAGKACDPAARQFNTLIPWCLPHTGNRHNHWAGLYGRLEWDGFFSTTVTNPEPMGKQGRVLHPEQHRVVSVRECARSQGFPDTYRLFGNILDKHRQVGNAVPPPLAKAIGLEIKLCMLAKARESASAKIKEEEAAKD
structure (smiles),measurement,setting,value
"CC(C)(C)OC(=O)NCCCC(=O)Oc1ccc([N+](=O)[O-])cc1[N+](=O)[O-] [fragment 41, 2,4-Dinitrophenyl 4-((tert-butoxycarbonyl)amino)butanoate]",isoTOP-ABPP ratio (R) at liganded lysine P05141_K23,[1],1.0
same,isoTOP-ABPP ratio (R) at liganded lysine P13804_K139,[2],20.0
"Cn1cc(CC(=O)Oc2c(F)c(F)c(F)c(F)c2F)c2ccccc21 [fragment 22, Pentafluorophenyl 2-(1-methyl-1H-indol-3-yl)acetate]",R value (DMSO/fragment) for probe 1 labeling,[3],0.9
same,R value (DMSO/fragment) for probe 1 labeling,[2],0.9
"O=C(Oc1ccc([N+](=O)[O-])cc1[N+](=O)[O-])c1ccc(-c2ccccc2)cc1 [fragment 37, 2,4-Dinitrophenyl [1,1′-biphenyl]-4-carboxylate]",isoTOP-ABPP ratio (R) at liganded lysine P26358_K45,[3],0.7
same,isoTOP-ABPP ratio (R) at liganded lysine P05141_K23,[1],1.2
same,isoTOP-ABPP ratio (R) at liganded lysine P13804_K139,[2],0.9
"COc1cc(CCC(=O)Oc2ccc([N+](=O)[O-])cc2[N+](=O)[O-])cc(OC)c1OC [fragment 33, 2,4-Dinitrophenyl 3-(3,4,5-trimethoxyphenyl)propanoate]",isoTOP-ABPP reactivity ratio at lysine P26358_K45,[3],0.9
same,isoTOP-ABPP reactivity ratio at lysine P13804_K139,[2],0.7
"O=C(Oc1c(F)c(F)c(F)c(F)c1F)C(c1ccccc1)c1ccccc1 [fragment 20, Pentafluorophenyl 2,2-diphenylacetate]",R value (DMSO/fragment) for probe 1 labeling,[3],7.3
same,R value (DMSO/fragment) for probe 1 labeling,[2],0.9
"O=C(Oc1ccc([N+](=O)[O-])cc1[N+](=O)[O-])c1ccc2ccccc2n1 [fragment 35, 2,4-Dinitrophenyl quinoline-2-carboxylate]",isoTOP-ABPP ratio (R) at liganded lysine P05141_K23,[1],1.1
same,isoTOP-ABPP ratio (R) at liganded lysine P13804_K139,[2],0.9
"O=C(CCc1ccc2c(c1)OCO2)Oc1ccc([N+](=O)[O-])cc1[N+](=O)[O-] [fragment 45, 2,4-Dinitrophenyl 3-(benzo[d][1,3]dioxol-5-yl)propanoate]","isoTOP-ABPP ratio, lysine P26358_K45",[3],1.0
same,"isoTOP-ABPP ratio, lysine P05141_K23",[1],1.2
same,"isoTOP-ABPP ratio, lysine P13804_K139",[2],1.0
"COc1cc(CCC(=O)Oc2c(F)c(F)c(F)c(F)c2F)cc(OC)c1OC [fragment 23, Pentafluorophenyl 3-(3,4,5-trimethoxyphenyl)propanoate]",R value (DMSO/fragment) for probe 1 labeling,[2],1.4
"O=C(Oc1ccc([N+](=O)[O-])cc1[N+](=O)[O-])c1ccccc1Nc1cccc(C(F)(F)F)c1 [fragment 40, 2,4-Dinitrophenyl 2-((3-(trifluoromethyl)phenyl)amino)benzoate]",isoTOP-ABPP ratio (R) at liganded lysine P05141_K23,[1],0.8
same,isoTOP-ABPP ratio (R) at liganded lysine P13804_K139,[2],0.9
"O=C(ON1C(=O)CCC1=O)c1cc(C(F)(F)F)cc(C(F)(F)F)c1 [fragment 46, 3,5-Bis(trifluoromethyl)benzoic acid NHS ester]","isoTOP-ABPP ratio, lysine P26358_K45",[3],2.4
same,"isoTOP-ABPP ratio, lysine P05141_K23",[1],0.9
same,"isoTOP-ABPP ratio, lysine P13804_K139",[2],0.9
"O=C(Oc1ccc([N+](=O)[O-])cc1[N+](=O)[O-])c1ccc(Oc2ccccc2)cc1 [fragment 39, 2,4-Dinitrophenyl 4-phenoxybenzoate]",isoTOP-ABPP ratio (R) at liganded lysine P26358_K45,[3],1.0
same,isoTOP-ABPP ratio (R) at liganded lysine P05141_K23,[1],0.9
same,isoTOP-ABPP ratio (R) at liganded lysine P13804_K139,[2],0.6
"O=C(Oc1c(F)c(F)c(F)c(F)c1F)c1ccc2ccccc2n1 [fragment 25, Pentafluorophenyl quinoline-2-carboxylate]",isoTOP-ABPP reactivity ratio at lysine P26358_K45,[3],0.9
"O=C(Oc1ccc([N+](=O)[O-])cc1[N+](=O)[O-])C(c1ccccc1)c1ccccc1 [fragment 30, 2,4-Dinitrophenyl 2,2-diphenylacetate]",isoTOP-ABPP reactivity ratio at lysine P05141_K23,[1],2.2
same,isoTOP-ABPP reactivity ratio at lysine P13804_K139,[2],20.0
"O=C(Oc1ccc([N+](=O)[O-])cc1[N+](=O)[O-])c1cc(C(F)(F)F)cc(C(F)(F)F)c1 [fragment 31, 2,4-Dinitrophenyl 3,5-bis(trifluoromethyl)benzoate]",isoTOP-ABPP reactivity ratio at lysine P05141_K23,[1],1.5
same,isoTOP-ABPP reactivity ratio at lysine P13804_K139,[2],0.8
"CC(=O)Oc1ccc([N+](=O)[O-])cc1[N+](=O)[O-] [fragment 43, 2,4-Dinitrophenyl acetate]",isoTOP-ABPP ratio (R) at liganded lysine P05141_K23,[1],0.9
